Experimental data taken from patent US6638938B1, “Method for preventing tissue injury from hypoxia” (Cell Therapeutics, Inc., priority 1993, dated 2003).

Test system: LPAAT (lysophosphatidic acyltransferase)
Test: inhibition of LPAAT activity
Format: biochemical
Details: extremely weak inhibitor; above clinically achievable concentrations

CC(=O)CCCCn1c(=O)c2c(ncn2C)n(C)c1=O [pentoxifylline, 1-(5-oxohexyl)3,7-dimethylxanthine, reference compound]
concentration required for inhibition of LPAAT activity: > 1 mM
